From ChEMBL document CHEMBL5528025, “Design, synthesis and biological evaluation of carbamate derivatives incorporating multifunctional carrier scaffolds as pseudo-irreversible cholinesterase inhibitors for the treatment of Alzheimer's disease” (Eur J Med Chem, 2024) come the findings set out here.

Data set [1] deals with T1, Cholinesterase (Homo sapiens, UniProt P06276).
Description: Inhibition of human serum BuChE using butyrylthiocholine iodide as substrate incubated for 10 mins followed by substrate addition and measured after 10 mins by DTNB reagent based Ellman's method
Data set [2] addresses T2, Acetylcholinesterase (Homo sapiens, UniProt P22303).
Description: Inhibition of human erythrocyte AChE incubated for 10 mins
The subject of data set [3] is BV-2. Put plainly: Cytotoxicity against mouse BV-2 cells assessed as reduction in cell viability at 5 uM incubated for 24 hrs by CCK-8 assay. The settings on record: bv-2, 24 h. Type of data set: toxicity, cell-based.
Data set [4] is described as follows: Cytotoxicity against rat PC-12 cells assessed as cell viability at 10 uM incubated for 24 hrs by CCK-8 assay relative to control. It is filed as toxicity, cell-based. The note with it: read-out: Activity.
The subject of data set [5] is PC-12. Description: Neuroprotective activity against H2O2-induced rat PC-12 cells assessed as protection against H2O2-induced apoptosis by measuring late apoptotic cells at 10 uM pretreated for 1 hr followed by H2O2 addition and measured after 24 hrs by Annexin V-FITC/PI staining based flow cytometry analysis (reference value: 7.97%). It is filed as functional. The note with it: time 25 hrs.

Data set [6] has as its system PC-12. Put plainly: Inhibition of H2O2 induced ROS production in rat PC-12 cells assessed as reduction in intracellular ROS level at 10 uM pretreated for 1 hr followed by H2O2 stimulation and measured after 24 hrs by confocal microscopic analysis. Type of data set: functional, cell-based. The note with it: time 25.0 hrs.
Data set [7] deals with PC-12. Put plainly: Neuroprotective activity against H2O2-induced rat PC-12 cells assessed as protection against H2O2-induced apoptosis by measuring live cells at 10 uM pretreated for 1 hr followed by H2O2 addition and measured after 24 hrs by Annexin V-FITC/PI staining based flow cytometry analysis (reference value: 63.2%). It is filed as functional. The settings on record: time 25 hrs.

Data set [8] relates to BV-2. Put plainly: Antineuroinflammatory activity in LPS-induced mouse BV-2 cells assessed as increase in IL-4 level at 1.25 to 5 uM incubated for 24 hrs by ELISA. The settings on record: dose 1.25-5 µM. It is filed as functional, cell-based.
Data set [9] has as its target T2, Acetylcholinesterase. Description: Pseudo-irreversible inhibition of human erythrocyte AChE at 4 times IC50 preincubated for 20 mins followed by dialysis and measured after 12 hrs. Type of data set: cell-based.
In data set [10] the target is T1, Cholinesterase. Description: Pseudo-irreversible inhibition of human serum BuChE using butyrylthiocholine iodide as substrate at 4 times IC50 preincubated for 20 mins followed by dialysis and measured after 12 hrs by DTNB reagent based Ellman's method.

The source made the active and inactive calls. The rule behind the calls is not given here.

T2 sequence (P22303 whole entry): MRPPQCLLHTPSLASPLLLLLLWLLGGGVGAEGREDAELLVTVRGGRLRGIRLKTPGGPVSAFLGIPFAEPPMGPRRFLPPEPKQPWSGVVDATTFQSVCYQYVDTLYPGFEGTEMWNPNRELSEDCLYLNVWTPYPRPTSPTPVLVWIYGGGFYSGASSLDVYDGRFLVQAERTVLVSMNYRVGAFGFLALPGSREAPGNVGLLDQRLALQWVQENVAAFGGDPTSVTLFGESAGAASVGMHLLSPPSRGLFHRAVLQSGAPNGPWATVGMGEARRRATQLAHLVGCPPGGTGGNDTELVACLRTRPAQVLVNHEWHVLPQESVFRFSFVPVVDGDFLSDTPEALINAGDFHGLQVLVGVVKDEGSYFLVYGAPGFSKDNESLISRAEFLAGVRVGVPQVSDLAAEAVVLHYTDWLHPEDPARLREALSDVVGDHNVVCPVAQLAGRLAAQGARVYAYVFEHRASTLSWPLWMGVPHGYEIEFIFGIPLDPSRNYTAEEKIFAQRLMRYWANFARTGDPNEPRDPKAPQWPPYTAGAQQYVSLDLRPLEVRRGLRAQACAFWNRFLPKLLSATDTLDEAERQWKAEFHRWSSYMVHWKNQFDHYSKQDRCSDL
T1 sequence (P06276 whole entry): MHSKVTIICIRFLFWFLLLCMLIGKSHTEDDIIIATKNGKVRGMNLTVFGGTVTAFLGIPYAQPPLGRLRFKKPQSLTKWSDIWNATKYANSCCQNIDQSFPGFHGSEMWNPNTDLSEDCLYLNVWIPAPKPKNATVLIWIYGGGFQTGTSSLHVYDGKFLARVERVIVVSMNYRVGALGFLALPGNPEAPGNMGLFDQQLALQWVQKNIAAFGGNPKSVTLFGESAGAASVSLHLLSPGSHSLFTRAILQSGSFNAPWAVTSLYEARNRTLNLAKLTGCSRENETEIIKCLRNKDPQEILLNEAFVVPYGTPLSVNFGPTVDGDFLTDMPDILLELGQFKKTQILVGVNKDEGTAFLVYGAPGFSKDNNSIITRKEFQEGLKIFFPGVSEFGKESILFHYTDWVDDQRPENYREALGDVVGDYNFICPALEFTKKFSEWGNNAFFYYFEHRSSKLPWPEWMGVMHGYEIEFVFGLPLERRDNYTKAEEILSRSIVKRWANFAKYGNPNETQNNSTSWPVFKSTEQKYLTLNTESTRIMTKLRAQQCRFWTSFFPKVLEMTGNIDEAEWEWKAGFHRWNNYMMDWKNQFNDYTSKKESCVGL

For `C[C@@H](c1cccc(OC(=O)NCCCCCCNc2c3c(nc4ccccc24)CCCC3)c1)N(C)C`, the half-inhibitory concentration (IC50) at Cholinesterase [1] turned out to be 14.8 nM; on Acetylcholinesterase [2] it was 119 nM.
The matching figures for `O=C(NCCCCCCNc1c2c(nc3cc(Br)ccc13)CCCC2)Oc1ccc2cc[nH]c2c1`: 57.9 nM and 113 nM.
The matching figures for `O=C(NCCCCCNc1c2c(nc3cc(Br)ccc13)CCCC2)Oc1ccc(-c2cc3cccnc3[nH]2)cc1`: 791 nM and 59.1 nM.
The matching figures for `C[C@@H](c1cccc(OC(=O)NCCCNc2c3c(nc4ccccc24)CCCC3)c1)N(C)C`: 23.2 nM and 385 nM.
`C[C@@H](c1cccc(OC(=O)NCCCCCNc2c3c(nc4ccccc24)CCCC3)c1)N(C)C`: the half-inhibitory concentration (IC50) was found to be 12 nM against Cholinesterase [1] and 117 nM against Acetylcholinesterase [2].
The matching figures for `C[C@@H](c1cccc(OC(=O)NCCCCCNc2c3c(nc4cc(F)ccc24)CCCC3)c1)N(C)C`: 137 nM and 37.8 nM.
On to `O=C(NCCCCCNc1c2c(nc3cc(Cl)ccc13)CCCC2)Oc1ccc2cc[nH]c2c1`, for which the 50% inhibitory concentration (IC50) against Cholinesterase [1] was determined as 48.6 nM; against Acetylcholinesterase [2], 248 nM. Also, the Activity entry with BV-2 [3] is given as “Toxic”. Besides, the viability at 24 h, 10 µM in data set [4] was > 90%.
Turning to `O=C(NCCNc1c2c(nc3ccccc13)CCCC2)Oc1ccc(-c2cc3cccnc3[nH]2)cc1`, the IC50 against Cholinesterase [1] is 52.2 nM; against Acetylcholinesterase [2] it was > 10000 nM.
The matching figures for `O=C(NCCCCCNc1c2c(nc3ccccc13)CCCC2)Oc1ccc(-c2cc3cccnc3[nH]2)cc1`: 21.2 nM and 153 nM.
As to `C[C@@H](c1cccc(OC(=O)NCCCCNc2c3c(nc4ccccc24)CCCC3)c1)N(C)C`, the figures for the IC50 at Cholinesterase [1] and against Acetylcholinesterase [2] were 43.5 nM and 292 nM, respectively.
The matching figures for `C[C@@H](c1cccc(OC(=O)NCCCCCCNc2c3c(nc4cc(F)ccc24)CCCC3)c1)N(C)C`: 11 nM and 42.2 nM.
On the same counts, the results for `C[C@@H](c1cccc(OC(=O)NCCNc2c3c(nc4ccccc24)CCCC3)c1)N(C)C` are > 10000 nM and 252 nM.
For the molecule `O=C(NCCCCNc1c2c(nc3ccccc13)CCCC2)Oc1ccc(-c2cc3cccnc3[nH]2)cc1`, the IC50 at Cholinesterase [1] is 20.5 nM; at Acetylcholinesterase [2] it was 205 nM. In addition, the Activity in the data set with PC-12 [5] is listed as 2.92%; in the data set on PC-12 [7], 77.2%; in the data set with BV-2 [3], “Non-Toxic”. Also, the inhibition entry in the data set on PC-12 [6] is “Active”. Also, in data set [4], the viability at 24 h, 10 µM is > 90%. In addition, in the data set with BV-2 [8], the result was Active.
Take `O=C(NCCCCCNc1c2c(nc3cc(Br)ccc13)CCCC2)Oc1ccc2cc[nH]c2c1`: the IC50 was 43.1 nM at Cholinesterase [1] and 317 nM against Acetylcholinesterase [2].
The matching figures for `O=C(NCCCCCCNc1c2c(nc3ccccc13)CCCC2)Oc1ccc2cc[nH]c2c1`: 76.5 nM and 382 nM.
The matching figures for `C[C@@H](c1cccc(OC(=O)NCCCCCNc2c3c(nc4cc(Cl)ccc24)CCCC3)c1)N(C)C`: 26.9 nM and 8.28 nM.
The matching figures for `O=C(NCCCCCNc1c2c(nc3cc(Cl)ccc13)CCCC2)Oc1ccc(-c2cc3cccnc3[nH]2)cc1`: 1660 nM and 23.1 nM.
With `O=C(NCCCCCNc1c2c(nc3cc(F)ccc13)CCCC2)Oc1ccc2cc[nH]c2c1`, the IC50 against Cholinesterase [1] was found to be 40 nM; against Acetylcholinesterase [2], 273 nM.
The matching figures for `O=C(NCCCCCCNc1c2c(nc3cc(Br)ccc13)CCCC2)Oc1ccc(-c2cc3cccnc3[nH]2)cc1`: 556 nM and 55 nM.
As to `O=C(NCCCCCNc1c2c(nc3cc(F)ccc13)CCCC2)Oc1ccc(-c2cc3cccnc3[nH]2)cc1`, the IC50 against Cholinesterase [1] was found to be 334 nM; at Acetylcholinesterase [2], 152 nM.
On the same counts, the results for `C[C@@H](c1cccc(OC(=O)NCCCCCNc2c3c(nc4cc(Br)ccc24)CCCC3)c1)N(C)C` are 21.6 nM and 47.7 nM.
As to `O=C(NCCCCCCNc1c2c(nc3cc(F)ccc13)CCCC2)Oc1ccc2cc[nH]c2c1`, the values for the 50% inhibitory concentration (IC50) against Cholinesterase [1] and at Acetylcholinesterase [2] were 43.1 nM and 297 nM, respectively.
Take `CCN(C)C(=O)Oc1cccc([C@H](C)N(C)C)c1`: the inhibition result at Acetylcholinesterase [9] and at Cholinesterase [10] was “Active” each time.
With `O=C(NCCCCCCNc1c2c(nc3ccccc13)CCCC2)Oc1ccc(-c2cc3cccnc3[nH]2)cc1`, the figures for the IC50 on Cholinesterase [1] and on Acetylcholinesterase [2] were 18.3 nM and 21.3 nM, respectively.
The matching figures for `O=C(NCCCNc1c2c(nc3ccccc13)CCCC2)Oc1ccc2cc[nH]c2c1`: 7.23 nM and 552 nM.
The matching figures for `C[C@@H](c1cccc(OC(=O)NCCCCCCNc2c3c(nc4cc(Cl)ccc24)CCCC3)c1)N(C)C`: 92.8 nM and 25.6 nM.
With `Oc1ccc(/C=C/c2cc(O)cc(O)c2)cc1` [RESVERATROL], the Activity in the data set with PC-12 [5] is recorded as 1.4%; with PC-12 [7] it was 87.3%.
In the case of `O=C(NCCCCCCNc1c2c(nc3cc(Cl)ccc13)CCCC2)Oc1ccc2cc[nH]c2c1`, the IC50 on Cholinesterase [1] is 64.4 nM; against Acetylcholinesterase [2] it was 153 nM.
On the same counts, the results for `O=C(NCCCCNc1c2c(nc3ccccc13)CCCC2)Oc1ccc2cc[nH]c2c1` are 1.35 nM and 510 nM.
In the case of `O=C(NCCCCCNc1c2c(nc3ccccc13)CCCC2)Oc1ccc2cc[nH]c2c1`, the IC50 against Cholinesterase [1] stood at 23.3 nM; at Acetylcholinesterase [2] it was 421 nM.
On the same counts, the results for `O=C(NCCCCCCNc1c2c(nc3cc(Cl)ccc13)CCCC2)Oc1ccc(-c2cc3cccnc3[nH]2)cc1` are 280 nM and 64.7 nM.
The matching figures for `C[C@@H](c1cccc(OC(=O)NCCCCCCNc2c3c(nc4cc(Br)ccc24)CCCC3)c1)N(C)C`: 9.65 nM and 56 nM.
As to `O=C(NCCNc1c2c(nc3ccccc13)CCCC2)Oc1ccc2cc[nH]c2c1`, the IC50 against Cholinesterase [1] was determined as 0.37 nM; on Acetylcholinesterase [2], 1250 nM.
With `O=C(NCCCNc1c2c(nc3ccccc13)CCCC2)Oc1ccc(-c2cc3cccnc3[nH]2)cc1`, the IC50 stood at 16.1 nM against Cholinesterase [1] and 233 nM at Acetylcholinesterase [2]. The viability at 24 h, 10 µM in data set [4] is > 90%.
